The source made the active and inactive calls. The calls are words filed in the database; no cut-off is given here.
Tests used:
[1] = Binding affinity to 5'-AGCGCT DNA by surface plasmon resonance assay
[2] = Binding affinity to 5'-ATGCAT DNA by surface plasmon resonance assay
[3] = Binding affinity to cognate sequence of 5'-ACCGGT DNA by surface plasmon resonance assay
[4] = Binding affinity to cognate sequence of 5'-ACCGGT DNA at 1 mol equivalent by circular dichroism analysis
[5] = Binding affinity to 5'-ACGCGT DNA assessed as change in melting temperature at 3 mol equivalent of compound-DNA
[6] = Binding affinity to 5'-ACCGGT DNA assessed as change in melting temperature at 3 mol equivalent of compound-DNA
[7] = Binding affinity to 5'-AAATTT DNA assessed as change in melting temperature at 3 mol equivalent of compound-DNA
[8] = Inhibition of 5'-ACCGGT cognate sequence containing 5'-32P labeled 131 base pair DNA (unknown origin) cleavage at 10 to 30 uM DNase I footprinting method

K [1]: 5 ×10⁵ /M
K [2]: 1 ×10⁶ /M
K [3]: 2 ×10⁶ /M
Activity [4]: Active
ΔTm [5]: 0 °C
ΔTm [6]: 5 °C
ΔTm [7]: 5 °C
inhibition [8]: Active
SMILES: COc1ccc(-c2nc3ccc(C(=O)Nc4cn(C)c(C(=O)Nc5cn(C)c(C(=O)NCCN(C)C)n5)n4)cc3[nH]2)cc1
